Test results: paper doi:10.1101/2021.10.07.463234v2 (biorxiv, 2021)
Structures can show the parent of a compound that is named as a salt.

Target: SARS-CoV-2 Mac1 (Severe acute respiratory syndrome coronavirus 2, UniProt P0DTD1)
Assay: biochemical
Conditions: for inhibition at 100 µM: read-out: %inhibition; for %inhibition: 100 µM, inhibitor

SMILES | inhibition at 100 µM [%] | %inhibition [%]
CN1CCN(CCCN2c3ccccc3Sc3ccc(C(F)(F)F)cc32)CC1 [Trifluoperazine 2HCl] | 0 | –
O=c1[nH]c(=O)n([C@H]2C[C@H](O)[C@@H](CO)O2)cc1C(F)(F)F [Trifluridine] | 0 | –
CC(=O)Oc1cc(C(F)(F)F)ccc1C(=O)O [Triflusal] | 5.82 | –
OC(CCN1CCCCC1)(c1ccccc1)C1CCCCC1 (centres unmarked) [Trihexyphenidyl hydrochloride] | 2.89 | –
C[C@]12CC[C@H]3[C@@H](CC[C@@]45O[C@@H]4C(O)=C(C#N)C[C@]35C)[C@@H]1CC[C@@H]2O [Trilostane] | 0 | –
CCC(COC(=O)c1cc(OC)c(OC)c(OC)c1)(c1ccccc1)N(C)C (centres unmarked) [Trimebutine maleate] | 0 | –
COc1ccc(CN2CCNCC2)c(OC)c1OC [Trimetazidine dihydrochloride] | 0 | –
CN1C(=O)OC(C)(C)C1=O [Trimethadione] | 0 | –
COc1cc(Cc2cnc(N)nc2N)cc(OC)c1OC [Trimethoprim] | 4.05 | –
CC(CN(C)C)CN1c2ccccc2CCc2ccccc21 (centres unmarked) [Trimipramine Maleate] | 0 | –
CN(C)CCN(Cc1ccccc1)c1ccccn1 [Tripelennamine HCl] | 0 | –
Cc1ccc(/C(=C\CN2CCCC2)c2ccccn2)cc1 [Triprolidine Hydrochloride] | 2.14 | –
Cc1c(C)c2c(c(C)c1O)CCC(C)(COc1ccc(CC3SC(=O)NC3=O)cc1)O2 (centres unmarked) [Troglitazone (CS-045)] | 5.13 | –
NC(CO)(CO)CO [Trometamol] | 3.46 | –
CN1[C@@H]2CC[C@H]1C[C@@H](OC(=O)c1c[nH]c3ccccc13)C2 [Tropisetron HCl] | – | 30.45
CN1[C@@H]2CC[C@H]1C[C@@H](OC(=O)c1c[nH]c3ccccc13)C2 [Tropisetron] | – | 6.575
O=C(O[C@H]1C[C@H]2CC[C@@H](C1)[N+]21CCCC1)C(O)(c1ccccc1)c1ccccc1 [Trospium chloride] | 14.5 | –
C[C@@H]1O[C@@H](OC[C@H]2O[C@@H](Oc3c(-c4ccc(OCCO)c(OCCO)c4)oc4cc(OCCO)cc(O)c4c3=O)[C@H](O)[C@@H](O)[C@@H]2O)[C@H](O)[C@H](O)[C@H]1O [Troxerutin] | 0 | –
COc1cc(C(=O)NC2CCCNC2)cc(OC)c1OC (centres unmarked) [Troxipide] | 19.2 | –
CC[C@H]1OC(=O)C[C@@H](O)[C@H](C)[C@@H](O[C@@H]2O[C@H](C)[C@@H](O[C@H]3C[C@@](C)(O)[C@@H](O)[C@H](C)O3)[C@H](N(C)C)[C@H]2O)[C@@H](CC=O)C[C@@H](C)C(=O)/C=C/C(C)=C/[C@@H]1CO[C@@H]1O[C@H](C)[C@@H](O)[C@@H](OC)[C@H]1OC [Tylosin tartrate] | 0 | –
CCCCOC(=O)c1ccccc1Nc1cccc(C(F)(F)F)c1 [Ufenamate] | 7.76 | –
CC(=O)[C@@]1(O)CC[C@H]2[C@@H]3CCC4=CC(=O)CCC4=C3[C@@H](c3ccc(N(C)C)cc3)C[C@@]21C [Ulipristal] | 0.321 | –
CC(C)Nc1cc(-c2c[nH]c(C(=O)N[C@H](CO)c3cccc(Cl)c3)c2)c(Cl)cn1 [Ulixertinib (BVD-523, VRT752271)] | 24.8 | –

SMILES | inhibition at 100 µM [%] | %inhibition [%]
OC(c1ccccc1)(c1ccccc1)C12CC[N+](CCOCc3ccccc3)(CC1)CC2 [Umeclidinium bromide] | 0 | –
Cn1ncc(Cl)c1-c1cc(C(=O)N[C@H](CN)Cc2ccc(F)c(F)c2)oc1Cl [Uprosertib (GSK2141795)] | 0 | –
O=c1cc[nH]c(=O)[nH]1 [Uracil] | 0 | –
COc1ccccc1N1CCN(CCCNc2cc(=O)n(C)c(=O)n2C)CC1 [Urapidil HCl] | 2.64 | –
CCOC(N)=O [Urethane] | 0 | –
O=c1ccn([C@@H]2O[C@H](CO)[C@@H](O)[C@H]2O)c(=O)[nH]1 [Uridine] | 0 | –
C[C@H](CCC(=O)O)[C@H]1CC[C@H]2[C@@H]3[C@@H](O)C[C@@H]4C[C@H](O)CC[C@]4(C)[C@H]3CC[C@]12C [Ursodiol] | 0 | –
Cc1ccc(NC(=O)C2(c3ccc4c(c3)OC(F)(F)O4)CC2)nc1-c1cccc(C(=O)O)c1 [VX-809 (Lumacaftor)] | 0 | –
CC(C)[C@H](N)C(=O)OCCOCn1cnc2c(=O)nc(N)[nH]c21 [Valaciclovir HCl] | 39.4 | –
COc1cc2c(cc1OC)[C@H]1C[C@@H](OC(=O)[C@@H](N)C(C)C)[C@H](CC(C)C)CN1CC2 [Valbenazine tosylate] | 13.2 | –
Cc1onc(-c2ccccc2)c1-c1ccc(S(N)(=O)=O)cc1 [Valdecoxib] | 9.12 | –
CC(C)[C@H](N)C(=O)OCC(CO)OCn1cnc2c(=O)nc(N)[nH]c21 (some centres unmarked) [Valganciclovir HCl] | 0 | –
C=C[C@]1(C)C[C@@H](OC(=O)CSC(C)(C)CNC(=O)[C@H](N)C(C)C)[C@]2(C)[C@H](C)CC[C@]3(CCC(=O)[C@H]32)[C@@H](C)[C@@H]1O [Valnemulin HCl] | 23.1 | –
CCCC(CCC)C(=O)O [Valproic acid sodium salt (Sodium valproate)] | – | 16.22
CCCC(CCC)C(=O)O [Valproic acid] | – | 0
CCCC(CCC)C(N)=O [Valpromide] | 13.2 | –
CCCCC(=O)N(Cc1ccc(-c2ccccc2-c2nnn[nH]2)cc1)[C@H](C(=O)O)C(C)C [Valsartan] | 31.1 | –
CN[C@H](CC(C)C)C(=O)N[C@H]1C(=O)N[C@@H](CC(N)=O)C(=O)N[C@H]2C(=O)N[C@H]3C(=O)N[C@H](C(=O)N[C@H](C(=O)O)c4cc(O)cc(O)c4-c4cc3ccc4O)[C@H](O)c3ccc(c(Cl)c3)Oc3cc2cc(c3O[C@@H]2O[C@H](CO)[C@@H](O)[C@H](O)[C@H]2O[C@H]2C[C@](C)(N)[C@H](O)[C@H](C)O2)Oc2ccc(cc2Cl)[C@H]1O [Vancomycin HCl] | 0 | –
COc1cc2/c(=N/c3ccc(Br)cc3F)nc[nH]c2cc1OCC1CCN(C)CC1 [Vandetanib (ZD6474)] | 35.2 | –
CCCc1nc(C)c2c(O)nc(-c3cc(S(=O)(=O)N4CCN(CC)CC4)ccc3OCC)nn12 [Vardenafil HCl Trihydrate] | 3.9 | –
c1cnc2cc3c(cc2n1)[C@@H]1CNC[C@H]3C1 [Varenicline Tartrate] | 0 | –
C[C@@H]1COC(Nc2ccc3ncnc(Nc4ccc(OCc5nccs5)c(Cl)c4)c3c2)=N1 [Varlitinib] | 0 | –
Clc1ccc(Nc2nnc(Cc3ccncc3)c3ccccc23)cc1 [Vatalanib (PTK787) 2HCl] | 0 | –

SMILES | inhibition at 100 µM [%] | %inhibition [%]
CC(=O)O[C@H]1C[C@@H]2CC[C@@H]3[C@H](CC[C@@]4(C)[C@H]3C[C@H]([N+]3(C)CCCCC3)[C@@H]4OC(C)=O)[C@@]2(C)C[C@@H]1N1CCCCC1 [Vecuronium Bromide] | 0 | –
C[C@]1(c2nc3c(C(N)=O)cccc3[nH]2)CCCN1 [Veliparib (ABT-888)] | 54.3 | –
COC[C@H]1C[C@@H](c2nc(-c3ccc4c(c3)COc3cc5c(ccc6nc([C@@H]7CC[C@H](C)N7C(=O)[C@@H](NC(=O)OC)C(C)C)[nH]c65)cc3-4)c[nH]2)N(C(=O)[C@H](NC(=O)OC)c2ccccc2)C1 [Velpatasvir] | 3.54 | –
CCCS(=O)(=O)Nc1ccc(F)c(C(=O)c2c[nH]c3ncc(-c4ccc(Cl)cc4)cc23)c1F [Vemurafenib (PLX4032, RG7204)] | 2.37 | –
COc1ccc(C(CN(C)C)C2(O)CCCCC2)cc1 (centres unmarked) [Venlafaxine HCl] | – | 0
Nc1ncnc2c1ncn2[C@@H]1O[C@H](CO)[C@@H](O)[C@@H]1O [Vidarabine monohydrate] | 9.49 | –
Nc1ncnc2c1ncn2[C@@H]1O[C@H](CO)[C@@H](O)[C@@H]1O [Vidarabine] | – | 17.83
COc1cccc(-c2ccc(NC(=O)C3=C(C(=O)O)CCC3)c(F)c2)c1 [Vidofludimus] | 19.8 | –
N#Cc1ccc2[nH]cc(CCCCN3CCN(c4ccc5oc(C(N)=O)cc5c4)CC3)c2c1 [Vilazodone HCl] | 9.5 | –
N#C[C@@H]1CCCN1C(=O)CNC12CC3CC(CC(O)(C3)C1)C2 [Vildagliptin (LAF-237)] | 11.7 | –
CC[C@]1(O)C[C@@H]2CN(CCc3c([nH]c4ccccc34)[C@@](C(=O)OC)(c3cc4c(cc3OC)N(C)[C@H]3[C@@](O)(C(=O)OC)[C@H](OC(C)=O)[C@]5(CC)C=CCN6CC[C@]43[C@@H]65)C2)C1 [Vinblastine sulfate] | 1.94 | –
CC[C@]12CCCN3CCc4c(n(c5ccccc45)[C@@](O)(C(=O)OC)C1)[C@@H]32 [Vincamine] | 13.7 | –
CC[C@]1(O)C[C@H]2CN(CCc3c([nH]c4ccccc34)[C@@](C(=O)OC)(c3cc4c(cc3OC)N(C=O)[C@H]3[C@@](O)(C(=O)OC)[C@H](OC(C)=O)[C@]5(CC)C=CCN6CC[C@]43[C@@H]65)C2)C1 [Vincristine sulfate] | 42.2 | –
CCOC(=O)C1=C[C@]2(CC)CCCN3CCc4c(n1c1ccccc41)[C@@H]32 [Vinpocetine] | 1.15 | –
CS(=O)(=O)c1ccc(C(=O)Nc2ccc(Cl)c(-c3ccccn3)c2)c(Cl)c1 [Vismodegib (GDC-0449)] | 0 | –
CC(=O)OC/C=C(C)/C=C/C=C(C)/C=C/C1=C(C)CCCC1(C)C [Vitamin A Acetate] | 4.44 | –
CC1=C(/C=C/C(C)=C/C=C/C(C)=C/CO)C(C)(C)CCC1 [Vitamin A] | 2.61 | –
O=C1O[C@H]([C@@H](O)CO)C(O)=C1O [Vitamin C] | – | 15.62
C=C1CC[C@H](O)C/C1=C/C=C1\CCC[C@]2(C)[C@@H]([C@H](C)/C=C/[C@H](C)C(C)C)CC[C@@H]12 [Vitamin D2] | 0 | –
CC(=O)Oc1c(C)c(C)c2c(c1C)CCC(C)(CCC[C@H](C)CCC[C@H](C)CCCC(C)C)O2 (some centres unmarked) [Vitamin E Acetate] | 0 | –
CC1=C(C/C=C(\C)CCC[C@H](C)CCC[C@H](C)CCCC(C)C)C(=O)c2ccccc2C1=O [Vitamin K1] | 19.5 | –
OCC(CO)N[C@H]1C[C@](O)(CO)[C@@H](O)[C@H](O)[C@H]1O [Voglibose] | 7.63 | –
